ChEMBL document CHEMBL3045905, “Synthesis and evaluation of curcumin analogues as cytotoxic agents” (Med Chem Res, 2010)
Active and inactive are the calls of the source. The calls are words filed in the database; no cut-off is given here.

Key:
[1] = Cytotoxicity against Mus musculus (mouse) EAC assessed as cell viability by trypan blue exclusion assay; assay type: functional, Ehrlich
[2] = Antitumor activity against Mus musculus (mouse) EAC xenografted in Mus musculus (mouse) assessed as normalization of hemoglobin level at 50 to 250 mg/kg/day, ip measured on day 14 (reference value: 8.7 g/dl); assay type: functional, Ehrlich; conditions: route intraperitoneal
[3] = system: Ehrlich; assay: Antitumor activity against Mus musculus (mouse) EAC xenografted in Mus musculus (mouse) assessed as normalization of WBC level at 50 to 250 mg/kg/day, ip measured on day 14 relative to untreated control; assay type: functional, organism-based
[4] = Antitumor activity against Mus musculus (mouse) EAC xenografted in Mus musculus (mouse) assessed as normalization of hematocrit at 50 to 250 mg/kg/day, ip measured on day 14 (reference value: 35.5%); assay type: functional, Ehrlich; conditions: route intraperitoneal
[5] = Antitumor activity against Mus musculus (mouse) EAC xenografted in Mus musculus (mouse) assessed as increase in mean survival time at 50 to 250 mg/kg/day, ip after 9 days (reference value: 9.1 days); assay type: functional, Ehrlich; conditions: route intraperitoneal
[6] = Antitumor activity against Mus musculus (mouse) EAC xenografted in Mus musculus (mouse) assessed as decrease in tumor number at 50 to 250 mg/kg/day, ip measured on day 14 by Giemsa staining (reference value: 220 million/ml); assay type: functional, Ehrlich; conditions: route intraperitoneal
[7] = system: Mus musculus; assay: Toxicity in Mus musculus Swiss Albino (mouse) xenografted with Mus musculus (mouse) EAC assessed as increase in body weight at 50 to 250 mg/kg/day, ip measured on day 14; assay type: organism-based; design: route intraperitoneal; conditions: in vivo
[8] = system: Ehrlich; assay: Antitumor activity against Mus musculus (mouse) EAC xenografted in Mus musculus (mouse) assessed as normalization of WBC level at 20 mg/kg/day, ip measured on day 14 relative to untreated control; assay type: functional, organism-based
[9] = system: Mus musculus; assay: Toxicity in Mus musculus Swiss Albino (mouse) xenografted with Mus musculus (mouse) EAC assessed as increase in body weight at 20 mg/kg/day, ip measured on day 14; assay type: organism-based; design: route intraperitoneal; conditions: in vivo
[10] = Antitumor activity against Mus musculus (mouse) EAC xenografted in Mus musculus (mouse) assessed as increase in mean survival time at 20 mg/kg/day, ip after 9 days (reference value: 9.1 days); assay type: functional, Ehrlich; conditions: route intraperitoneal
[11] = Antitumor activity against Mus musculus (mouse) EAC xenografted in Mus musculus (mouse) assessed as normalization of hematocrit at 20 mg/kg/day, ip measured on day 14 (reference value: 35.5%); assay type: functional, Ehrlich; conditions: route intraperitoneal
[12] = Antitumor activity against Mus musculus (mouse) EAC xenografted in Mus musculus (mouse) assessed as normalization of hemoglobin level at 20 mg/kg/day, ip measured on day 14 (reference value: 8.7 g/dl); assay type: functional, Ehrlich; conditions: route intraperitoneal
[13] = Antitumor activity against Mus musculus (mouse) EAC xenografted in Mus musculus (mouse) assessed as decrease in tumor number at 20 mg/kg/day, ip measured on day 14 by Giemsa staining (reference value: 220 million/ml); assay type: functional, Ehrlich; conditions: route intraperitoneal

For COc1cc(/C=C/C(=O)C(=NNc2ccc(C)cc2)C(=O)/C=C/c2ccc(O)c(OC)c2)ccc1O, the ED10 [1] was 2.4 mM.
COc1cc(/C=C/C(=O)/C(=N\Nc2ccc([N+](=O)[O-])cc2)C2=NC(=S)NC(c3ccc(O)c(OC)c3)C2)ccc1O (stereo not drawn) gave an ED10 [1] of 2.9 mM.
COc1cc(/C=C/c2cc(/C=C/c3ccc(O)c(OC)c3)n(N=O)n2)ccc1O showed an ED25 [1] of 6.7 mM.
For COc1cc(/C=C/C(=O)C(=NNc2ccc(Cl)cc2)C(=O)/C=C/c2ccc(O)c(OC)c2)ccc1O, the ED25 [1] was 3.2 mM.
Work on COc1cc(C2CC(C(=NNc3ccc([N+](=O)[O-])cc3)C3=NC(=S)NC(c4ccc(O)c(OC)c4)C3)=NC(=S)N2)ccc1O (stereo not drawn) yielded an ED25 [1] of 4.8 mM.
Work on COc1ccc(NN=C(C(=O)/C=C/c2ccc(O)c(OC)c2)C(=O)/C=C/c2ccc(O)c(OC)c2)cc1 yielded an ED25 [1] of 3.4 mM.
COc1cc(/C=C/C(=O)C(=NNc2ccc([N+](=O)[O-])cc2)C(=O)/C=C/c2ccc(O)c(OC)c2)ccc1O gave an ED10 [1] of 2.5 mM and an ED25 [1] of 2.8 mM.
Compound COc1cc(/C=C/C(=O)CC(=O)/C=C/c2ccc(O)c(OC)c2)ccc1O [CURCUMIN] has an ED10 [1] of 3.4 mM and an ED25 [1] of 4.8 mM.
For COc1cc(/C=C/c2cc(/C=C/c3cc(/N=N/c4ccc(Cl)cc4)c(O)c(OC)c3)n(CO)n2)cc(/N=N/c2ccc(Cl)cc2)c1O, the ED25 [1] was 3.6 mM.
Work on COc1cc(/C=C/C(=O)/C(=N\Nc2ccc([N+](=O)[O-])cc2)C(=O)C(Br)C(Br)c2ccc(O)c(OC)c2)ccc1O (stereo not drawn) yielded an ED25 [1] of 3.2 mM.
With COc1cc(/C=C/c2cc(/C=C/c3ccc(O)c(OC)c3)[nH]n2)ccc1O [CURCUMIN PYRAZOLE] the Activity [2] was 9.4 g/dL, the Activity [3] was “Active” and the ED25 [1] was 66.7 mM. For the same compound, the Activity [4] was 41%, the MST [5] was 14.6 days and the Activity [6] was 169.6 ×10⁶ /ml. The Activity [7] was “Toxic”.
Compound COc1cc(C2C=C(C(=NNc3ccc([N+](=O)[O-])cc3)C3=CC(c4ccc(O)c(OC)c4)ON3)NO2)ccc1O (stereo not drawn) has an ED25 [1] of 5.3 mM.
COc1cc(C2CC(C(=NNc3ccc([N+](=O)[O-])cc3)C3=NNC(c4ccc(O)c(OC)c4)C3)=NN2)ccc1O (stereo not drawn) showed an ED25 [1] of 38.9 mM.
In the case of COc1cc(/C=C/c2cc(/C=C/c3ccc(O)c(OC)c3)n(NN)n2)ccc1O, the ED25 [1] was 22.2 mM.
In the case of O=c1[nH]cc(F)c(=O)[nH]1 [FLUOROURACIL], the Activity [8] was “Active”, the Activity [9] was “Toxic” and the MST [10] was 16.7 days. For the same compound, the Activity [11] was 42.3%, the Activity [12] was 10 g/dL and the Activity [13] was 123 ×10⁶ /ml.
